Patent US6355428B1, “Nucleic acid ligand interaction assays” (Genelabs Technologies, Inc., priority 1998, dated 2002)
Starred links: 1 amine or outer side, 2 acyl side, 3 side chain; linkers in the order of their positions; H or OH if unused. Positions of bridges follow the written chain, without caps; N, C: chain ends. Non-standard residues stand in square brackets, D forms with d. Residues, ends and D or L forms follow the SMILES beside them. Chains are numbered I, II in the order given. Actinocin(9to1) = Cc1c2oc3c(C)ccc(C(=O)[*:1])c3nc-2c(C(=O)[*:2])c(N)c1=O; NMeV = CN[C@H](C(=O)O)C(C)C; Sar = CNCC(=O)O

How the values were obtained:
[1] = tested on: RNA 5′-rCUAGAUCUGA-3′ (SEQ ID NO: 23) double stranded RNA probe; test: Fluorescence quenching direct binding assay, RNA; settings: increasing bekanomycin
Description: (§1) The specific examples described in this section employ fluorescence quenching as the detection system. In these examples, because conditions are adjusted to maintain the oligonucleotides in single-stranded form in the absence of the ligand, the assay starts with the system at a high or maximum level of fluorescence, and fluorescence generally decreases, depending on binding affinity, as the ligand is added.
In the Figure legends, RNA oligonucleotides are denoted by an “r” at the beginning of the sequence, and single stranded controls by “ss” at the end of the sequence. These single stranded sequence, are used alone in control experiments, which thus employ only an “F” strand and no complementary quenching strand. Any quenching of fluorescence that is not due to hybridization can thus be acounted for. Maximum quenching expected on complete hybridization of these oligonucleotides is 85-90%; therefore some signal remains after complete hybridization. The signal is plotted so that it is normalized to the control signal in the absence of ligand.
Netropsin has been shown in previous studies to bind preferentially to A/T rich regions of DNA. […] Netropsin also binds well to the sequence 5′-GCGGTATTT-3′ (SEQ ID NO: 12), which is a useful “indicator” probe (as discussed below), having both C/G and A/T rich sequences. […]

[2] = tested on: A/T rich, G/C rich and mixed sequence DNA oligonucleotides; test: SPA direct binding assay, sequence preference over panel of indicator oligonucleotides; settings: A/T rich 5′-AAAATAATAAAG, G/C rich 5′-GGCGCGG, mixed 5′-GTTGCAGATC; increasing drug
From the text: This technology can be applied to studies of ligand binding as disclosed herein. […] These beads are impregnated with scintillant. The second oligonucleotide is labeled with a weak β-emitter, such as ^3H or ^33P. The radioactive second oligonucleotide is mixed with a solution of the beads under conditions at which the first and second oligonucleotides exist primarily as single strands, as described above. The signal will thus be low, as the oligonucleotides are non-hybridized. When ligand is added, the duplex form is stabilized, and the increased proximity of the radioactive isotope (e.g., ^3H, ^33P) in the second oligonucleotide causes the bead to which the first oligonucleotide is bound to scintillate. A signal thus indicates the presence of an effective binding ligand molecule; test sequences giving higher signals indicate the relative preference for different sequences.
Indicator oligonucleotides as shown in Table 1 were used in this assay, as shown in Table II and FIGS. 4A-E. One strand of each duplex was labeled with biotin at the 5′-end, and the complementary strand was 3′-labeled with ^33P. The two complementary strands were incubated with streptavidin-coated SPA beads (Amersham, Arlington Heights, Ill.) at room temperature in a buffer containing 20 mM HEPES, pH 7.5, 0.1 mM EDTA, and 20 mM NaCl. In the absence of ligand, and under these conditions, the oligonucleotides exist in single-stranded conformation. As a result, the oligonucleotide containing the radioactive label is not in close proximity to the SPA bead, and the light given off by the beads is low, i.e., at background. As a duplex-stabilizing ligand is added, the radioactive ^33P is brought into close proximity to the SPA bead, and the light emitted from the SPA bead increases.

[3] = tested on: F/Q indicator oligonucleotide pairs (Table I); test: Fluorescence quenching direct binding assay, panel of F/Q indicator oligonucleotide pairs; settings: concentrations up to 5 μM; tRNA added
Description: as §1
In the Figure legends, RNA oligonucleotides are denoted by an “r” at the beginning of the sequence, and single stranded controls by “ss” at the end of the sequence. These single stranded sequence, are used alone in control experiments, which thus employ only an “F” strand and no complementary quenching strand. Any quenching of fluorescence that is not due to hybridization can thus be acounted for. Maximum quenching expected on complete hybridization of these oligonucleotides is 85-90%; therefore some signal remains after complete hybridization. […]
According to the general method described above, increasing amounts of netropsin or actinomycin, respectively, were added to mixtures of selected F/Q indicator oligonucleotide pairs, whose sequences are shown in the legends of FIGS. 1 and 3. […] The Figures show the level of fluorescence observed, relative to a control having no added drug, for each indicator pair (or single strand) as the level of added drug was increased. […]

NCC1OC(OC2C(N)CC(N)C(OC3OC(CO)C(O)C(N)C3O)C2O)C(N)C(O)C1O (centres unmarked) [Bekanomycin, bekanomycin]
binding preference over all other test oligonucleotides (FIG. 3C) [1]: very strong preference for the double stranded RNA probe

Cc1c2oc3c(C)ccc(C(=O)N[C@@H]4C(=O)N[C@H](C(C)C)C(=O)N5CCC[C@H]5C(=O)N(C)CC(=O)N(C)[C@@H](C(C)C)C(=O)O[C@@H]4C)c3nc-2c(C(=O)N[C@@H]2C(=O)N[C@H](C(C)C)C(=O)N3CCC[C@H]3C(=O)N(C)CC(=O)N(C)[C@@H](C(C)C)C(=O)O[C@@H]2C)c(N)c1=O [actinomycin D] (I: T[dV]P[Sar][NMeV] / II: T[dV]P[Sar][NMeV]; ester I:1-I:C, II:1-II:C; linker I:N-II:N via Actinocin(9to1))
sequence preference of binding (FIGS. 4A-E) [2]: preferred GC-rich sequences | sequences bound (FIG. 3B) [3]: binding only to the C/G containing sequences (SEQ ID NOS: 6, 8, and 12)

CC(=O)NCC(=O)O.CC(=O)NCC(=O)O.N=C(N)c1ccc(N=NNc2ccc(C(=N)N)cc2)cc1 [berenil]
sequence preference of binding (FIGS. 4A-E) [2]: no strong preference

COC(C(=O)C(O)C(C)O)C1Cc2cc3cc(OC4CC(OC5CC(O)C(OC)C(C)O5)C(OC(C)=O)C(C)O4)c(C)c(O)c3c(O)c2C(=O)C1OC1CC(OC2CC(OC3CC(C)(O)C(OC(C)=O)C(C)O3)C(O)C(C)O2)C(O)C(C)O1 (centres unmarked) [chromomycin A]
sequence preference of binding (FIGS. 4A-E) [2]: preferred GC-rich sequences
